{"source": "PubChem BioAssay (NCI)", "assay_in_all_cases": "inhibition of tumour cell growth, NCI panel, 48 h", "key": {"CAKI-1 renal": {"test_system": "CAKI-1 renal"}, "DU-145 prostate": {"test_system": "DU-145 prostate"}, "EKVX NSCLC": {"test_system": "EKVX NSCLC"}, "HS 578T breast": {"test_system": "HS 578T breast"}, "IGROV1 ovarian": {"test_system": "IGROV1 ovarian"}, "K-562 leukemia": {"test_system": "K-562 leukemia"}, "KM12 colon": {"test_system": "KM12 colon"}, "MDA-MB-435": {"test_system": "MDA-MB-435"}, "NCI-H226 lung": {"test_system": "NCI-H226 lung"}, "NCI-H460 lung": {"test_system": "NCI-H460 lung"}, "RXF-631 renal": {"test_system": "RXF-631 renal"}, "SF-268 CNS": {"test_system": "SF-268 CNS"}, "SF-539 CNS": {"test_system": "SF-539 CNS"}, "SK-MEL-28 melanoma": {"test_system": "SK-MEL-28 melanoma"}, "SNB-19 CNS": {"test_system": "SNB-19 CNS"}, "SNB-78 CNS": {"test_system": "SNB-78 CNS"}, "TK-10 renal": {"test_system": "TK-10 renal"}, "XF 498 CNS": {"test_system": "XF 498 CNS"}}, "note": "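All cell lines were grown in 96-well plates and treated with compound for 48 hours. GI50 marks 50% less growth. TGI: concentration producing complete growth inhibition.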 Calls of active or inactive are those of the source. No stated cut-off is given here; in the data, active means GI50 below about 0.43 µM; inactive means the rest.", "data": [{"smiles": "C[CH2][Sn]([CH2]C)([O]C(=O)c1ccccc1F)[O]C(=O)c1ccccc1F", "values": [{"measurement": "GI50", "setting": "CAKI-1 renal", "value": 11.9, "unit": "µM"}, {"measurement": "TGI", "setting": "CAKI-1 renal", "value": 19.6, "unit": "µM"}, {"measurement": "GI50", "setting": "DU-145 prostate", "value": "> 100", "unit": "µM"}, {"measurement": "TGI", "setting": "DU-145 prostate", "value": "> 100", "unit": "µM"}, {"measurement": "GI50", "setting": "EKVX NSCLC", "value": "> 100", "unit": "µM"}, {"measurement": "TGI", "setting": "EKVX NSCLC", "value": "> 100", "unit": "µM"}, {"measurement": "GI50", "setting": "HS 578T breast", "value": 42.2, "unit": "µM"}, {"measurement": "TGI", "setting": "HS 578T breast", "value": "> 100", "unit": "µM"}, {"measurement": "GI50", "setting": "IGROV1 ovarian", "value": "> 100", "unit": "µM"}, {"measurement": "TGI", "setting": "IGROV1 ovarian", "value": "> 100", "unit": "µM"}, {"measurement": "GI50", "setting": "K-562 leukemia", "value": 16.2, "unit": "µM"}, {"measurement": "TGI", "setting": "K-562 leukemia", "value": 55.1, "unit": "µM"}, {"measurement": "GI50", "setting": "KM12 colon", "value": "> 100", "unit": "µM"}, {"measurement": "TGI", "setting": "KM12 colon", "value": "> 100", "unit": "µM"}, {"measurement": "GI50", "setting": "MDA-MB-435", "value": "> 100", "unit": "µM"}, {"measurement": "TGI", "setting": "MDA-MB-435", "value": "> 100", "unit": "µM"}, {"measurement": "GI50", "setting": "NCI-H226 lung", "value": 14.7, "unit": "µM"}, {"measurement": "TGI", "setting": "NCI-H226 lung", "value": 22.1, "unit": "µM"}, {"measurement": "GI50", "setting": "NCI-H460 lung", "value": "> 100", "unit": "µM"}, {"measurement": "TGI", "setting": "NCI-H460 lung", "value": "> 100", "unit": "µM"}, {"measurement": "GI50", "setting": "RXF-631 renal", "value": 18.6, "unit": "µM"}, {"measurement": "TGI", "setting": "RXF-631 renal", "value": 34.1, "unit": "µM"}, {"measurement": "GI50", "setting": "SF-268 CNS", "value": 32.1, "unit": "µM"}, {"measurement": "TGI", "setting": "SF-268 CNS", "value": 50.8, "unit": "µM"}, {"measurement": "GI50", "setting": "SF-539 CNS", "value": 23.2, "unit": "µM"}, {"measurement": "TGI", "setting": "SF-539 CNS", "value": 29.4, "unit": "µM"}, {"measurement": "GI50", "setting": "SK-MEL-28 melanoma", "value": 29.1, "unit": "µM"}, {"measurement": "TGI", "setting": "SK-MEL-28 melanoma", "value": 47.6, "unit": "µM"}, {"measurement": "GI50", "setting": "SNB-19 CNS", "value": 36.6, "unit": "µM"}, {"measurement": "TGI", "setting": "SNB-19 CNS", "value": 60.6, "unit": "µM"}, {"measurement": "GI50", "setting": "SNB-78 CNS", "value": 20.6, "unit": "µM"}, {"measurement": "TGI", "setting": "SNB-78 CNS", "value": 39, "unit": "µM"}, {"measurement": "GI50", "setting": "TK-10 renal", "value": 18.1, "unit": "µM"}, {"measurement": "TGI", "setting": "TK-10 renal", "value": 33.4, "unit": "µM"}, {"measurement": "GI50", "setting": "XF 498 CNS", "value": 15.9, "unit": "µM"}, {"measurement": "TGI", "setting": "XF 498 CNS", "value": 30.6, "unit": "µM"}]}, {"smiles": "C=CC(=O)C#CC#CC/C=C\\CCCCCCC", "values": [{"measurement": "TGI", "setting": "CAKI-1 renal", "value": "> 20.6", "unit": "µM"}, {"measurement": "outcome", "setting": "CAKI-1 renal", "value": "inactive"}, {"measurement": "TGI", "setting": "DU-145 prostate", "value": "> 20.6", "unit": "µM"}, {"measurement": "outcome", "setting": "DU-145 prostate", "value": "inactive"}, {"measurement": "TGI", "setting": "EKVX NSCLC", "value": "> 20.6", "unit": "µM"}, {"measurement": "outcome", "setting": "EKVX NSCLC", "value": "inactive"}, {"measurement": "TGI", "setting": "HS 578T breast", "value": "> 20.6", "unit": "µM"}, {"measurement": "outcome", "setting": "HS 578T breast", "value": "inactive"}, {"measurement": "TGI", "setting": "IGROV1 ovarian", "value": "> 6.51", "unit": "µM"}, {"measurement": "outcome", "setting": "IGROV1 ovarian", "value": "inactive"}, {"measurement": "TGI", "setting": "K-562 leukemia", "value": "> 20.6", "unit": "µM"}, {"measurement": "outcome", "setting": "K-562 leukemia", "value": "inactive"}, {"measurement": "TGI", "setting": "KM12 colon", "value": "> 20.6", "unit": "µM"}, {"measurement": "outcome", "setting": "KM12 colon", "value": "inactive"}, {"measurement": "TGI", "setting": "MDA-MB-435", "value": "> 20.6", "unit": "µM"}, {"measurement": "outcome", "setting": "MDA-MB-435", "value": "inactive"}, {"measurement": "TGI", "setting": "NCI-H226 lung", "value": "> 20.6", "unit": "µM"}, {"measurement": "outcome", "setting": "NCI-H226 lung", "value": "inactive"}, {"measurement": "TGI", "setting": "NCI-H460 lung", "value": "> 20.6", "unit": "µM"}, {"measurement": "outcome", "setting": "NCI-H460 lung", "value": "inactive"}, {"measurement": "TGI", "setting": "SF-268 CNS", "value": "> 20.6", "unit": "µM"}, {"measurement": "outcome", "setting": "SF-268 CNS", "value": "inactive"}, {"measurement": "TGI", "setting": "SF-539 CNS", "value": "> 20.6", "unit": "µM"}, {"measurement": "outcome", "setting": "SF-539 CNS", "value": "inactive"}, {"measurement": "TGI", "setting": "SK-MEL-28 melanoma", "value": "> 20.6", "unit": "µM"}, {"measurement": "outcome", "setting": "SK-MEL-28 melanoma", "value": "inactive"}, {"measurement": "TGI", "setting": "SNB-19 CNS", "value": "> 20.6", "unit": "µM"}, {"measurement": "outcome", "setting": "SNB-19 CNS", "value": "inactive"}, {"measurement": "TGI", "setting": "SNB-78 CNS", "value": "> 20.6", "unit": "µM"}, {"measurement": "TGI", "setting": "TK-10 renal", "value": "> 20.6", "unit": "µM"}, {"measurement": "outcome", "setting": "TK-10 renal", "value": "inactive"}]}]}
